In the supplement of paper PMC10627819:

What was measured:
Test in all cases: fitness (endpoint OD595 vs no drug) (fraction); higher = more growth
[1] = test system: S. pneumoniae D39V
Outline: (§1)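 With the first reading as background, OD595 was measured every 30 min for 14 h in 384-well plates kept at 37 °C and inoculated at OD595 0.01. TSB, LB Lennox or CY was the medium. Fitness is the optical density at the transition into stationary phase divided by the robust mean of no-drug control wells, with a cap of 1.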

[2] = test system: S. aureus DSM 20231
Outline: as §1

[3] = test system: B. subtilis 168
Outline: as §1
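Further: OD595 on entry to stationary phase over no-drug wells; at most 1.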

CN(C)[C@@H]1C(O)=C(C(N)=O)C(=O)[C@@]2(O)C(O)=C3C(=O)c4c(O)ccc(Cl)c4[C@@](C)(O)[C@H]3C[C@@H]12 [Chlortetracycline] + CO[C@@]12[C@H](COC(N)=O)C3=C(C(=O)C(C)=C(N)C3=O)N1C[C@@H]1N[C@@H]12 [Mitomycin C]
fitness
Conditions	first compound 0.012 µg/mL	first compound 0.024 µg/mL	first compound 0.048 µg/mL	first compound 0.375 µg/mL	first compound 0.75 µg/mL	first compound 1.5 µg/mL
[1], partner 0.001075 µg/mL	0.924	0.895	0.824	–	–	–
[1], partner 0.002 µg/mL	–	–	–	0.0654	0.0249	0.0576
[1], partner 0.00215 µg/mL	0.853	0.832	0.788	–	–	–
[1], partner 0.004 µg/mL	–	–	–	0.0793	0.0699	0.0536
[1], partner 0.0043 µg/mL	0.687	0.713	0.645	–	–	–
[1], partner 0.008 µg/mL	–	–	–	0.0339	0.0265	0.0168
[2], partner 0.0156 µg/mL	0.55	0.288	0.0746	–	–	–
[2], partner 0.0312 µg/mL	0.52	0.224	0.0614	–	–	–
[2], partner 0.0625 µg/mL	0.384	0.174	0.17	–	–	–

[2], first compound 0.006 µg/mL, one replicate
Conditions	fitness
partner 0.0156 µg/mL	0.65
partner 0.0312 µg/mL	0.64
partner 0.0625 µg/mL	0.542

CC(=O)Oc1ccccc1C(=O)O [Acetylsalicylic acid] + O=C(O[C@@H]1Cc2c(O)cc(O)cc2O[C@@H]1c1cc(O)c(O)c(O)c1)c1cc(O)c(O)c(O)c1 [EGCG]
fitness
Conditions	partner 12.5 µg/mL	partner 25 µg/mL	partner 50 µg/mL
[1], first compound 250 µg/mL	0.955	0.935	0.914
[1], first compound 500 µg/mL	0.927	0.929	0.851
[2], first compound 250 µg/mL	0.764	0.774	0.766
[2], first compound 500 µg/mL	0.735	0.767	0.72
[2], first compound 1000 µg/mL	0.616	0.621	0.598

CC(=O)Oc1ccccc1C(=O)O [Acetylsalicylic acid] + CCC[C@@H]1C[C@@H](C(=O)N[C@@H]([C@H]2O[C@H](SC)[C@H](O)[C@@H](O)[C@H]2O)[C@H](C)Cl)N(C)C1 [Clindamycin]
fitness
Conditions	first compound 250 µg/mL	first compound 500 µg/mL	first compound 1000 µg/mL
[1], partner 0.0125 µg/mL	0.759	0.697	0.508
[1], partner 0.015 µg/mL	0.857	0.771	0.528
[1], partner 0.025 µg/mL	0.468	0.435	0.37
[1], partner 0.03 µg/mL	0.677	0.574	0.37
[1], partner 0.05 µg/mL	0.164	0.166	0.129
[1], partner 0.06 µg/mL	0.331	0.246	0.104
[2], partner 0.0312 µg/mL	–	–	0.28
[2], partner 0.0625 µg/mL	0.143	0.169	0.114
[2], partner 0.125 µg/mL	0.0488	0.0833	0.0683

CC(=O)Oc1ccccc1C(=O)O [Acetylsalicylic acid] + CCN(CC)CCOC(=O)c1ccc(N)cc1 [Procaine]
fitness
Conditions	partner 85.5 µg/mL	partner 171 µg/mL	partner 342 µg/mL
[1], first compound 250 µg/mL	≥ 1	0.989	0.966
[1], first compound 500 µg/mL	≥ 1	0.995	0.97
[1], first compound 1000 µg/mL	0.922	0.86	0.89
[2], first compound 250 µg/mL	0.916	0.971	0.963
[2], first compound 500 µg/mL	0.849	0.896	–

CC(=O)Oc1ccccc1C(=O)O [Acetylsalicylic acid] + CCC[C@@H]1C[C@@H](C(=O)N[C@@H]([C@H]2O[C@H](SC)[C@H](O)[C@@H](O)[C@H]2O)[C@@H](C)O)N(C)C1 [Lincomycin]
fitness
Conditions	partner 0.1 µg/mL	partner 0.2 µg/mL	partner 0.215 µg/mL	partner 0.4 µg/mL	partner 0.43 µg/mL	partner 0.8 µg/mL	partner 0.86 µg/mL
[1], first compound 250 µg/mL	–	0.528	0.866	0.389	0.748	0.116	0.377
[1], first compound 500 µg/mL	–	0.455	0.824	0.368	0.749	0.0711	0.389
[1], first compound 1000 µg/mL	–	0.344	0.841	0.213	0.746	0.0378	0.35
[2], first compound 250 µg/mL	0.863	0.84	–	–	–	–	–
[2], first compound 500 µg/mL	0.81	0.795	–	–	–	–	–
[2], first compound 1000 µg/mL	–	–	–	0.204	–	–	–

CC(=O)Oc1ccccc1C(=O)O [Acetylsalicylic acid] + CN[C@H](CC(C)C)C(=O)N[C@H]1C(=O)N[C@@H](CC(N)=O)C(=O)N[C@H]2C(=O)N[C@H]3C(=O)N[C@H](C(=O)N[C@H](C(=O)O)c4cc(O)cc(O)c4-c4cc3ccc4O)[C@H](O)c3ccc(c(Cl)c3)Oc3cc2cc(c3O[C@@H]2O[C@H](CO)[C@@H](O)[C@H](O)[C@H]2O[C@H]2C[C@](C)(N)[C@H](O)[C@H](C)O2)Oc2ccc(cc2Cl)[C@H]1O [Vancomycin]
fitness
Conditions	first compound 250 µg/mL	first compound 500 µg/mL	first compound 1000 µg/mL
[1], partner 0.03125 µg/mL	0.956	0.934	0.839
[1], partner 0.0625 µg/mL	0.894	0.885	0.826
[1], partner 0.125 µg/mL	0.927	0.917	0.84
[1], partner 0.25 µg/mL	0.984	0.961	0.83
[1], partner 0.5 µg/mL	0.105	0.0715	0.0849
[2], partner 0.1875 µg/mL	0.871	0.79	0.592
[2], partner 0.375 µg/mL	0.953	–	0.562
[2], partner 0.75 µg/mL	0.947	–	–

CN(C)[C@@H]1C(O)=C(C(N)=O)C(=O)[C@@]2(O)C(O)=C3C(=O)c4c(O)ccc(Cl)c4[C@@](C)(O)[C@H]3C[C@@H]12 [Chlortetracycline] + COc1cc(Cc2cnc(N)nc2N)cc(OC)c1OC [Trimethoprim]
one replicate
Conditions	fitness
[2], first compound 0.006 µg/mL, partner 0.125 µg/mL	0.656
[2], first compound 0.006 µg/mL, partner 0.25 µg/mL	0.606
[2], first compound 0.006 µg/mL, partner 0.5 µg/mL	0.509
[2], first compound 0.048 µg/mL, partner 0.125 µg/mL	0.0947
[3], first compound 0.0475 µg/mL, partner 0.1 µg/mL	0.82
[3], first compound 0.0475 µg/mL, partner 0.2 µg/mL	0.735
[3], first compound 0.0475 µg/mL, partner 0.4 µg/mL	0.637
[3], first compound 0.0475 µg/mL, partner 1 µg/mL	0.296
[3], first compound 0.0475 µg/mL, partner 2 µg/mL	0.305
[3], first compound 0.095 µg/mL, partner 0.1 µg/mL	0.81
[3], first compound 0.095 µg/mL, partner 0.2 µg/mL	0.707
[3], first compound 0.095 µg/mL, partner 0.4 µg/mL	0.531
[3], first compound 0.095 µg/mL, partner 1 µg/mL	0.132
[3], first compound 0.095 µg/mL, partner 2 µg/mL	0.119
[3], first compound 0.19 µg/mL, partner 0.1 µg/mL	0.599
[3], first compound 0.19 µg/mL, partner 0.2 µg/mL	0.421
[3], first compound 0.19 µg/mL, partner 0.4 µg/mL	0.279
[3], first compound 0.19 µg/mL, partner 1 µg/mL	0.0652
[3], first compound 0.19 µg/mL, partner 2 µg/mL	0.0699

fitness
Conditions	partner 0.125 µg/mL	partner 0.25 µg/mL	partner 0.5 µg/mL	partner 1 µg/mL
[2], first compound 0.012 µg/mL	0.47	0.545	0.36	0.0767
[2], first compound 0.024 µg/mL	0.159	–	0.171	0.0593
[2], first compound 0.048 µg/mL	–	0.117	0.0724	0.042
[3], first compound 0.0475 µg/mL	0.762	0.62	–	–
[3], first compound 0.095 µg/mL	0.673	0.548	–	–
[3], first compound 0.19 µg/mL	0.52	0.406	0.279	–
